# Data from US20170058314A1, “NOVEL METHODOLOGY FOR IDENTIFYING ANTI-PERSISTER ACTIVITY AND ANTIMICROBIAL SUSCEPTIBILITY FOR BORRELIA BURGDORFERI AND OTHER BACTERIA” (priority 2014, published 2017).
# Structures can show the parent of a compound that is named as a salt. Where two headings read alike, the source gives them in different places.
# Assays:
# [1] = system: B. burgdorferi (growing, strain B31); experiment: MIC determination, standard microdilution method; type: cell-based, Borrelia burgdorferi; details: for sensitivity of log phase / multiplying B. burgdorferi (words, FIG. 12): MIC test
# [2] = system: stationary phase B. burgdorferi persisters (strain B31); experiment: NCI compound library rescreen, epifluorescence microscope counting; details: for viability at 50 µM / viability at 20 µM: Borreliella burgdorferi, 168 h; for viability at 20 µM: read-out: Residual viable cells (%) 20 μM (epifluorescence microscope counting)
# [3] = system: stationary phase B. burgdorferi persisters (strain B31); experiment: NCI compound library screen, SYBR Green I/PI assay (plate reader); details: for viability at 20 µM / viability at 50 µM: Borreliella burgdorferi, 168 h
# [4] = system: round body form of B. burgdorferi; experiment: SYBR Green I/PI assay on amoxicillin-induced round body form
# [5] = read-out: Activity against persisters (residual viable cell percentage)
# [6] = read-out: Residual viable cells (%) 50 μM (epifluorescence microscope counting)
# [7] = read-out: Residual viable cells (epifluorescence microscope counting)
# [8] = read-out: Residual viable cells (%) 20 μM (SYBR Green I/PI assay), 20 μM, seven day old stationary phase, 7 days
# [9] = read-out: Residual viable cells (SYBR Green I/PI assay), 50 μM, seven day old stationary phase culture, 7 days
# [10] = read-out: Residual viable cells (SYBR Green I/PI assay)
# [11] = read-out: Residual viable cells (%) 20 μM (SYBR Green I/PI assay)
# [12] = 20 μM, seven day old stationary phase, 7 days
# [13] = 50 μM, seven day old stationary phase culture, 7 days
# [14] = Borreliella burgdorferi, growing B. burgdorferi, read-out: MIC
structure (smiles),measurement,setting,value
"CCCCCC1=C/C(=C/c2[nH]c(-c3ccc[nH]3)cc2OC)N=C1C [NSC47147, Prodigiosin]",MIC,[1]; Borreliella burgdorferi,≤ 0.2 µg/mL
same,MIC,[1]; growing B. burgdorferi,≦0.2 μg/mL
same,viability at 50 µM,[2]; [5],24%
same,viability at 20 µM,[2],45%
same,viability at 50 µM,[2]; [6],24%
same,viability at 50 µM,[2]; [7],24%
same,viability at 20 µM,[3]; [8],0%
same,viability at 50 µM,[3]; [9],0%
"O=C1c2ccccc2C(=O)c2c(O)c(NCCNCCO)cc(O)c21 [NSC316157, 9,10-Anthracenedione, 1,4-dihydroxy-2-[[2-[(2-hydroxyethyl)amino]ethyl]amino]-]",viability at 50 µM,[2]; [7],23%
same,viability at 50 µM,[3]; [10],0%
"Cc1cc(C(=C2C=CC(=N)C=C2)c2ccc(N)cc2)ccc1N [NSC93739, 2-Methyl-4,4′-[(4-imino-2,5-cyclohexadien-1-ylidene)methylene]dianiline hydrochloride]",viability at 20 µM,[2],77%
same,viability at 50 µM,[2]; [6],43%
same,viability at 50 µM,[2]; [7],43%
same,viability at 20 µM,[3]; [11],0%
same,viability at 50 µM,[3]; [10],0%
"O/N=C(/c1ccccc1)c1ccc2c3c(cccc13)CC2 [NSC137399, 1-(1,2-Dihydro-5-acenaphthylenyl)-N-hydroxy-1-phenylmethanimine]",viability at 50 µM,[2]; [7],41%
same,viability at 50 µM,[3]; [10],51%
"COCCOC1=C(Cl)C(=O)c2c(O)ccc(O)c2C1=O [NSC659997, Naphthalene-1,4-dione, 2-chloro-5,8-dihydroxy-3-(2-methoxyethoxy)-]",viability at 20 µM,[2],50%
same,viability at 50 µM,[2]; [6],28%
same,viability at 50 µM,[2]; [7],28%
same,viability at 20 µM,[3]; [11],40%
same,viability at 50 µM,[3]; [10],1%
"O=c1c(O)c(-c2ccc(O)c(O)c2)oc2cc(O)ccc12 [NSC407010, 2-(3,4-dihydroxyphenyl)-3,7-dihydroxy-4H-1-benzopyran-4-one]",viability at 50 µM,[2]; [7],38%
same,viability at 50 µM,[3]; [9],39%
Cc1ncc([N+](=O)[O-])n1CCO [Metronidazole],viability at 50 µM,"[4]; Borreliella burgdorferi, 168 h, read-out: Residual viable cells (SYBR Green I/PI assay)",33%
same,"Ratios of green/red fluorescence, Primary screening","[4]; round body form, 50 μM, 7 days",6.23
same,"Ratios of green/red fluorescence, Rescreening (first column)","[4]; round body form, 50 μM, 7 days",6.30
same,"Ratios of green/red fluorescence, Rescreening (second column)","[4]; round body form, 50 μM, 7 days",6.31
same,"sensitivity of log phase / multiplying B. burgdorferi (words, FIG. 12)",[1],less potent
"Cc1c2cc[n+](CCN3CCCCC3)cc2c(C)c2c1[nH]c1ccc(O)cc12 [NSC311153, 9-Hydroxy-2-(2-piperidinylethyl)ellipticinium acetate]",viability at 50 µM,[2]; [7],26%
same,viability at 50 µM,[3]; [10],45%
"COc1cccc2c1C(=O)c1c(O)c3c(c(O)c1C2=O)C[C@@](O)(C(C)=O)C[C@@H]3OC1CC(N(C)C)C(O)C(C)O1 (some centres unmarked) [NSC258812, Dimethyldaunomycin hydrochloride]",viability at 20 µM,[2],10%
same,viability at 50 µM,[2]; [6],10%
same,viability at 50 µM,[2]; [7],10%
same,viability at 20 µM,[3]; [11],0%
same,viability at 50 µM,[3]; [10],0%
"CC[C@@]1(O)C[C@H](O[C@H]2C[C@H](N(C)C)[C@H](O)[C@H](C)O2)c2c(O)c3c(c(O)c2[C@H]1O[C@H]1C[C@H](N(C)C)[C@H](O)[C@H](C)O1)C(=O)c1cccc(O)c1C3=O [NSC136044, Rhodomycin A]",Residual viable cells (%) 20 μM (epifluorescence microscope counting),[2]; [12],21%
same,Residual viable cells (epifluorescence microscope counting),[2]; [13],22%
same,Residual viable cells (%) 50 μM (epifluorescence microscope counting),"[2]; 50 μM, seven day old stationary phase, 7 days",21%
same,Residual viable cells (%) 20 μM (SYBR Green I/PI assay),[3]; [12],5%
same,Residual viable cells (SYBR Green I/PI assay),[3]; [13],0%
"O=C1c2cccc(Sc3ccccc3)c2C(=O)c2c(Sc3ccccc3)cccc21 [NSC156516, 1,8-Di(phenylthio)anthraquinone]",viability at 50 µM,[2]; [7],50%
same,viability at 50 µM,[3]; [9],46%
"Cc1cc(NS(=O)(=O)c2ccc(N)cc2)no1 [Smx, sulfamethoxazole]",MIC,[1]; [14],≤ 0.2 µg/mL
"CCN(CC)c1ccc2cc3ccc(=[N+](CC)CC)cc-3oc2c1.[Cl-] [NSC44690, Pyronin B]",MIC,[1]; growing B. burgdorferi,1.8 to 3.6 µg/mL
C[C@]1(Cn2ccnn2)[C@H](C(=O)O)N2C(=O)C[C@H]2S1(=O)=O [tazobactam],"sensitivity of log phase / multiplying B. burgdorferi (words, FIG. 12)",[1],less potent
"CC1OC(CC(=O)O)CC2=C1C(=O)c1c(O)cccc1C2=O (centres unmarked) [NSC267461, Nanaomycin]",MIC,[1]; [14],0.76 to 1.57 µg/mL
same,viability at 50 µM,[2]; [5],26%
same,viability at 20 µM,[2],45%
same,viability at 50 µM,[2]; [6],26%
same,viability at 50 µM,[2]; [7],26%
same,viability at 20 µM,[3]; [8],39%
same,viability at 50 µM,[3]; [9],34%
